Reference: ChEMBL document CHEMBL1201862, “PubChem BioAssay data set” (2004)
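A five-concentration, 48-hour dose response in 96-well plates underlies each endpoint, interpolated linearly between surrounding concentrations. At the GI50, growth is halved.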 Activity calls are given as the source filed them. Rule as the data show it: active = GI50 up to about 1.1 µM and inactive = higher.

Columns and labels:
Assay in all cases: DTP human tumour cell line panel, 48 h
[1] = system: 786-0
[2] = system: A549
[3] = system: CCRF-CEM
[4] = system: DLD-1
[5] = system: DU-145
[6] = system: HCT-15
[7] = system: HOP-92
[8] = system: LXFL 529
[9] = system: M14
[10] = system: MCF7
[11] = system: Malme-3M
[12] = system: NCI-H23
[13] = system: NCI-H460
[14] = system: NCI-H522
[15] = system: NCI/ADR-RES
[16] = system: RXF 393
[17] = system: SK-MEL-2
[18] = system: SK-OV-3
[19] = system: SW-620
[20] = system: TK-10

Row | SMILES | GI50 [1] | GI50 [2] | GI50 [3] | GI50 [4] | GI50 [5] | GI50 [6] [µM] | GI50 [7] | GI50 [8] | GI50 [9] | GI50 [10] | GI50 [11] | GI50 [12] | GI50 [13] | GI50 [14] | GI50 [15] | GI50 [16] | GI50 [17] | GI50 [18] | GI50 [19] | GI50 [20]
1 | Cn1c2ccccc2c(=O)c2c(O)cc3c(c21)CC(C1(C)CO1)O3 (stereo not given) | 1.71 µM (inactive) | 5.16 µM (inactive) | 0.056 µM (active) | 3.64 µM (inactive) | 10.7 µM (inactive) | 4.69 | 9.08 µM (inactive) | 0.229 µM (active) | 1.51 µM (inactive) | 0.462 µM (active) | 10.5 µM (inactive) | 2.02 µM (inactive) | 3.29 µM (inactive) | 2.93 µM (inactive) | 1.32 µM (inactive) | 1.17 µM (inactive) | 0.887 µM (active) | 5.53 µM (inactive) | 1.17 µM (inactive) | 11.4 µM (inactive)
2 | C[C@]12CCNC(=O)C=C1CC[C@@H]1C2CC[C@@]2(C)C1CC[C@@H]2OC(=O)COc1ccc(N(CCCl)CCCl)cc1 (stereo not given in full) | 0.964 µM (active) | 5.37 µM (inactive) | 0.326 µM (active) | 4.56 µM (inactive) | 4.54 µM (inactive) | 2.68 | 7.73 µM (inactive) | 7.57 µM (inactive) | 6.35 µM (inactive) | 1.29 µM (inactive) | 8.45 µM (inactive) | 2.99 µM (inactive) | 0.308 µM (active) | 1.65 µM (inactive) | – | 4.37 µM (inactive) | 18.5 µM (inactive) | 6.27 µM (inactive) | 2.23 µM (inactive) | 17.6 µM (inactive)
3 | O=[N+]([O-])c1cccc(S(=O)(=O)N/N=C/c2cc(I)cc([N+](=O)[O-])c2O)c1 | 31.8 µM (inactive) | > 100 µM (inactive) | 20.1 µM (inactive) | 42.5 µM (inactive) | – | 24.5 | 16.8 µM (inactive) | 21.5 µM (inactive) | 27.2 µM (inactive) | – | 25.9 µM (inactive) | 22 µM (inactive) | 34 µM (inactive) | 18.8 µM (inactive) | – | 26.4 µM (inactive) | 19.7 µM (inactive) | 26.5 µM (inactive) | 22 µM (inactive) | 29.2 µM (inactive)
4 | O=[N+]([O-])c1ccc(C2CC(c3ccccc3Cl)=Nc3ccccc3[S+]2[O-])cc1 (stereo not given) | 1.8 µM (inactive) | 9.64 µM (inactive) | 1.48 µM (inactive) | 2.06 µM (inactive) | 15.5 µM (inactive) | 2.21 | 15.3 µM (inactive) | 1.79 µM (inactive) | 5.71 µM (inactive) | 2.34 µM (inactive) | 9.91 µM (inactive) | 4.13 µM (inactive) | 4.27 µM (inactive) | 1.15 µM (inactive) | – | 1.8 µM (inactive) | 15 µM (inactive) | 19.8 µM (inactive) | 1.98 µM (inactive) | 8.02 µM (inactive)
